Source: ChEMBL document CHEMBL1128843, “Protein kinase C- inhibitors; structure-activity relationships in bis-indole series” (Bioorg Med Chem Lett, 1995)
pIC50: −log10 of the molar value.

Target: Protein kinase C alpha type (Homo sapiens, UniProt P17252)
Assay: Inhibition of Protein kinase C alpha

Row | pIC50 | SMILES
1 | 6.20 | CN(C)CCCNC(=O)c1cc(NC(=O)c2cc(NC(=O)Cn3cc(C4=C(c5c[nH]c6ccccc56)C(=O)NC4=O)c4ccccc43)cn2C)cn1C
2 | 6.30 | COC(=O)c1cc(NC(=O)Cn2cc(C3=C(c4c[nH]c5ccccc45)C(=O)NC3=O)c3ccccc32)cn1C
3 | 8.00 | CN(C)CCCn1cc(C2=C(c3c[nH]c4ccccc34)C(=O)NC2=O)c2ccccc21 [GF-109203]
4 | 6.00 | CN(C)CCCNC(=O)c1cc(NC(=O)Cn2cc(C3=C(c4c[nH]c5ccccc45)C(=O)NC3=O)c3ccccc32)cn1C
5 | 6.77 | COC(=O)c1cc(NC(=O)c2cc(C(=O)c3cc(NC(=O)Cn4cc(C5=C(c6c[nH]c7ccccc67)C(=O)NC5=O)c5ccccc54)cn3C)cn2C)cn1C
6 | 6.55 | COC(=O)c1cc(NC(=O)c2cc(NC(=O)Cn3cc(C4=C(c5c[nH]c6ccccc56)C(=O)NC4=O)c4ccccc43)cn2C)cn1C
7 | 6.34 | CN(C)CCCNC(=O)c1cc(NC(=O)c2cc(NC(=O)c3cc(NC(=O)Cn4cc(C5=C(c6c[nH]c7ccccc67)C(=O)NC5=O)c5ccccc54)cn3C)cn2C)cn1C
